Reference: patent US9023789B2, “Amylin analogs and pharmaceutical compositions thereof” (Novo Nordisk A/S, priority 2012, dated 2015)
pIC50: −log10 of the molar value. In brackets after ≈: the same amount, converted by molar mass. Like-named read-outs stand apart in the source and are kept apart here. Numbered stars: 1 amine (or outer) side, 2 acyl side, 3 side chain; on linkers, the order of the positions; unused ones are H or OH. Bridge positions count the residues as written; N and C are the ends. Side chains are listed from the residue outwards. Peptide text beside a SMILES is read from it. * marks the point of attachment. C20 diacid = O=C(O)CCCCCCCCCCCCCCCCCCC(=O)*; γGlu = O=C(O)[C@H](CCC(=O)[*:2])N[*:1]; AEEA = NCCOCCOCC(=O)O

How the values were obtained:
[1] = ASSAY (IV) determination of solubility; type: physicochemical
Method in brief: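 Polypeptide stock in water ([…]) was mixed 1:1 with 100 mM buffers: glycylglycine at pH 3.0, 4.0, 5.0 and bistrispropane at pH 6.0, 6.5, 7.0, 7.5, 8.0. After 18 hours at room temperature, samples were centrifuged and polypeptide concentration measured by UPLC.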

rat calcitonin receptor = target: T1, rat calcitonin receptor (Rattus norvegicus, UniProt P32214); test: ASSAY (VIII) binding to the rat calcitonin receptor; conditions: Table 7, read-out: rCTR bind IC50
T1 construct: expressed in transfected cells; host or cells: BHK tk'ts 13 (transient, FuGENE 6), membranes
T1 sequence (P32214 25-479 isoform P32214-2 limits assumed): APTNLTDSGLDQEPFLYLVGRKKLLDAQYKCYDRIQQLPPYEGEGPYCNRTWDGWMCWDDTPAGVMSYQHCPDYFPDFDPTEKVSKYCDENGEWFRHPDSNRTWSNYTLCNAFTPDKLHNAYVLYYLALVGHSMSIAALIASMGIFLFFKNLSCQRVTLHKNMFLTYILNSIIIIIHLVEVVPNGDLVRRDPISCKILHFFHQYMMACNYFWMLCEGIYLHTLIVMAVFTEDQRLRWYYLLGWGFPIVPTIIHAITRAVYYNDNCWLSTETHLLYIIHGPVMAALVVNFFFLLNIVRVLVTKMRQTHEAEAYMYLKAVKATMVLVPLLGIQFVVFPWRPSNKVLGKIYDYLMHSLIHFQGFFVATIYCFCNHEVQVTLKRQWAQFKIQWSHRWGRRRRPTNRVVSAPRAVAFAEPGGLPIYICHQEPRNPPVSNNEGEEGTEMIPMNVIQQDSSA
Method in brief: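 Transfect BHK tk′ts 13 cells transiently with rat calcitonin receptor, culture in DMEM containing 10% FBS, collect cells about 48 hours later, then prepare membranes.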

[2] = bistrispropane buffer, pH 6.5, read-out: Solubility pH 6.5 Concentration
[3] = bistrispropane buffer, pH 7.5, read-out: Solubility pH 7.5 Concentration
[4] = bistrispropane buffer, pH 6.0, read-out: Solubility pH 6.0 Concentration
[5] = bistrispropane buffer, pH 7.0, read-out: Solubility pH 7.0 Concentration
[6] = bistrispropane buffer, pH 8.0, read-out: Solubility pH 8.0 Concentration
[7] = glycylglycine buffer, pH 3.0, read-out: Solubility pH 3.0 Concentration
[8] = glycylglycine buffer, pH 4.0, read-out: Solubility pH 4.0 Concentration
[9] = glycylglycine buffer, pH 5.0, read-out: Solubility pH 5.0 Concentration

SMILES	solubility at 18 h [1, 2]	solubility at 18 h [1, 3]	solubility at 18 h [1, 4]	solubility at 18 h [1, 5]	solubility at 18 h [1, 6]	solubility at 18 h [1, 7]	solubility at 18 h [1, 8]	solubility at 18 h [1, 9]	pIC50 (rat calcitonin receptor)	solubility at 18 h ([1]; pH 3.0, read-out: Solubility pH 3.0 Concentration)	solubility at 18 h ([1]; pH 4.0, read-out: Solubility pH 4.0 Concentration)	solubility at 18 h ([1]; pH 5.0, read-out: Solubility pH 5.0 Concentration)	solubility at 18 h ([1]; pH 6.0, read-out: Solubility pH 6.0 Concentration)	solubility at 18 h ([1]; pH 6.5, read-out: Solubility pH 6.5 Concentration)	solubility at 18 h ([1]; pH 7.0, read-out: Solubility pH 7.0 Concentration)	solubility at 18 h ([1]; pH 7.5, read-out: Solubility pH 7.5 Concentration)	solubility at 18 h ([1]; pH 8.0, read-out: Solubility pH 8.0 Concentration)
CC[C@H](C)[C@H](NC(=O)[C@H](C)NC(=O)CNC(=O)[C@H](Cc1ccccc1)NC(=O)[C@H](CC(N)=O)NC(=O)[C@@H]1CCCN1C(=O)[C@H](CO)NC(=O)[C@H](CO)NC(=O)[C@H](Cc1c[nH]cn1)NC(=O)[C@H](CCCNC(=N)N)NC(=O)[C@H](CC(C)C)NC(=O)[C@H](Cc1ccccc1)NC(=O)[C@H](CCC(=O)O)NC(=O)[C@H](C)NC(=O)[C@H](CC(C)C)NC(=O)[C@H](CCCNC(=N)N)NC(=O)[C@H](CCC(N)=O)NC(=O)[C@@H](NC(=O)[C@H](C)NC(=O)[C@@H]1CSSC[C@H](NC(=O)[C@H](CCCCN)NC(=O)CC[C@H](NC(=O)CCCCCCCCCCCCCCCCCCC(=O)O)C(=O)O)C(=O)N[C@@H](CC(N)=O)C(=O)N[C@@H]([C@@H](C)O)C(=O)N[C@@H](C)C(=O)N[C@@H]([C@@H](C)O)C(=O)N1)[C@@H](C)O)C(=O)N[C@@H](CC(C)C)C(=O)N1CCC[C@H]1C(=O)N[C@@H](CO)C(=O)N[C@H](C(=O)N[C@@H](CC(N)=O)C(=O)N[C@H](C(=O)NCC(=O)N[C@@H](CO)C(=O)N[C@@H](CCC(=O)O)C(=O)N[C@H](C(=O)N[C@@H](Cc1ccc(O)cc1)C(N)=O)[C@@H](C)O)C(C)C)[C@@H](C)O [Example 33] ({C20 diacid-γGlu}-KCNTATCATQRLAEFLRHSSPNFGAILPSTNVGSETY-NH2; disulfide 2-7)	≥ 200 µM	≥ 200 µM	≥ 200 µM	≥ 200 µM	≥ 200 µM	≥ 200 µM	≥ 200 µM	≥ 200 µM	7.54	–	–	–	–	–	–	–	–
CC[C@H](C)[C@H](NC(=O)[C@H](C)NC(=O)CNC(=O)[C@H](Cc1ccccc1)NC(=O)[C@H](CC(N)=O)NC(=O)[C@@H]1CCCN1C(=O)[C@H](CO)NC(=O)[C@H](CO)NC(=O)[C@H](Cc1c[nH]cn1)NC(=O)[C@H](CCCNC(=N)N)NC(=O)[C@H](CC(C)C)NC(=O)[C@H](Cc1ccccc1)NC(=O)[C@H](CCC(=O)O)NC(=O)[C@H](C)NC(=O)[C@H](CC(C)C)NC(=O)[C@H](CCCNC(=N)N)NC(=O)[C@H](CCC(N)=O)NC(=O)[C@@H](NC(=O)[C@H](C)NC(=O)[C@@H]1CSSC[C@H](NC(=O)[C@H](CCCCN)NC(=O)CC[C@H](NC(=O)CCCCCCCCCCCCCCCCCCC(=O)O)C(=O)O)C(=O)N[C@@H](CC(N)=O)C(=O)N[C@@H]([C@@H](C)O)C(=O)N[C@@H](C)C(=O)N[C@@H]([C@@H](C)O)C(=O)N1)[C@@H](C)O)C(=O)N1CCC[C@H]1C(=O)N[C@@H](CO)C(=O)N1CCC[C@H]1C(=O)N[C@H](C(=O)N[C@@H](CC(N)=O)C(=O)N[C@H](C(=O)NCC(=O)N[C@@H](CO)C(=O)N[C@@H](CC(N)=O)C(=O)N[C@H](C(=O)N[C@@H](Cc1ccc(O)cc1)C(N)=O)[C@@H](C)O)C(C)C)[C@@H](C)O [Example 37] ({C20 diacid-γGlu}-KCNTATCATQRLAEFLRHSSPNFGAIPSPTNVGSNTY-NH2; disulfide 2-7 (inferred))	≥ 200 µM	≥ 200 µM	≥ 200 µM	≥ 200 µM	≥ 200 µM	≥ 200 µM	≥ 200 µM	≥ 200 µM	8.13	–	–	–	–	–	–	–	–
CC[C@H](C)[C@H](NC(=O)[C@H](C)NC(=O)CNC(=O)[C@H](Cc1ccccc1)NC(=O)[C@H](CC(N)=O)NC(=O)[C@@H]1CCCN1C(=O)[C@H](CO)NC(=O)[C@H](CO)NC(=O)[C@H](Cc1c[nH]cn1)NC(=O)[C@H](CCCNC(=N)N)NC(=O)[C@H](CC(C)C)NC(=O)[C@H](Cc1ccccc1)NC(=O)[C@H](CCCCN)NC(=O)[C@H](C)NC(=O)[C@H](CC(C)C)NC(=O)[C@H](CCCNC(=N)N)NC(=O)[C@H](CCC(N)=O)NC(=O)[C@@H](NC(=O)[C@H](C)NC(=O)[C@@H]1CSSC[C@H](NC(=O)[C@@H](N)CCCCNC(=O)COCCOCCNC(=O)CC[C@H](NC(=O)CCCCCCCCCCCCCCCCCCC(=O)O)C(=O)O)C(=O)N[C@@H](CC(N)=O)C(=O)N[C@@H]([C@@H](C)O)C(=O)N[C@@H](C)C(=O)N[C@@H]([C@@H](C)O)C(=O)N1)[C@@H](C)O)C(=O)N1CCC[C@H]1C(=O)N[C@@H](CO)C(=O)N[C@@H](CO)C(=O)N[C@H](C(=O)N1CCC[C@H]1C(=O)N[C@H](C(=O)NCC(=O)N[C@@H](CO)C(=O)N[C@@H](CC(N)=O)C(=O)N[C@H](C(=O)N[C@@H](Cc1ccc(O)cc1)C(N)=O)[C@@H](C)O)C(C)C)[C@@H](C)O [Example 74] (H-K([AEEA-γGlu-C20 diacid])CNTATCATQRLAKFLRHSSPNFGAIPSSTPVGSNTY-NH2; disulfide 2-7; N-terminus assumed)	–	–	–	–	–	–	–	–	6.96	≥ 200 µM	≥ 200 µM	≥ 200 µM	≥ 200 µM	≥ 200 µM	≥ 200 µM	≥ 200 µM	≥ 200 µM
CC[C@H](C)[C@H](NC(=O)[C@H](C)NC(=O)CNC(=O)[C@H](Cc1ccccc1)NC(=O)[C@H](CC(N)=O)NC(=O)[C@@H]1CCCN1C(=O)[C@H](CO)NC(=O)[C@H](CO)NC(=O)[C@H](Cc1c[nH]cn1)NC(=O)[C@H](CCCNC(=N)N)NC(=O)[C@H](CC(C)C)NC(=O)[C@H](Cc1ccccc1)NC(=O)[C@H](C)NC(=O)[C@H](C)NC(=O)[C@H](CC(C)C)NC(=O)[C@H](CCCNC(=N)N)NC(=O)[C@H](CCC(N)=O)NC(=O)[C@@H](NC(=O)[C@H](C)NC(=O)[C@@H]1CSSC[C@H](NC(=O)[C@@H](N)CCCCNC(=O)CC[C@H](NC(=O)CCCCCCCCCCCCCCCCCCC(=O)O)C(=O)O)C(=O)N[C@@H](CC(N)=O)C(=O)N[C@@H]([C@@H](C)O)C(=O)N[C@@H](C)C(=O)N[C@@H]([C@@H](C)O)C(=O)N1)[C@@H](C)O)C(=O)N1CCC[C@H]1C(=O)N[C@@H](CO)C(=O)N[C@@H](CO)C(=O)N[C@H](C(=O)N[C@@H](CC(N)=O)C(=O)N[C@H](C(=O)NCC(=O)N1CCC[C@H]1C(=O)N[C@@H](CC(N)=O)C(=O)N[C@H](C(=O)N[C@@H](Cc1ccc(O)cc1)C(N)=O)[C@@H](C)O)C(C)C)[C@@H](C)O [Example 94] (H-K([γGlu-C20 diacid])CNTATCATQRLAAFLRHSSPNFGAIPSSTNVGPNTY-NH2; disulfide 2-7 (inferred))	≥ 200 µM	≥ 200 µM	≥ 200 µM	≥ 200 µM	≥ 200 µM	≥ 200 µM	≥ 200 µM	≥ 200 µM	6.95	–	–	–	–	–	–	–	–
CC[C@H](C)[C@H](NC(=O)[C@H](C)NC(=O)CNC(=O)[C@H](Cc1ccccc1)NC(=O)[C@H](CC(N)=O)NC(=O)[C@@H]1CCCN1C(=O)[C@H](CO)NC(=O)[C@H](CO)NC(=O)[C@H](Cc1c[nH]cn1)NC(=O)[C@H](CCCNC(=N)N)NC(=O)[C@H](CC(C)C)NC(=O)[C@H](Cc1ccccc1)NC(=O)[C@H](C)NC(=O)[C@H](C)NC(=O)[C@H](CC(C)C)NC(=O)[C@H](CCCNC(=N)N)NC(=O)[C@H](CCC(N)=O)NC(=O)[C@@H](NC(=O)[C@H](C)NC(=O)[C@@H]1CSSC[C@H](NC(=O)[C@H](CCCNC(=N)N)NC(=O)CNC(=O)CC[C@H](NC(=O)CCCCCCCCCCCCCCCCCCC(=O)O)C(=O)O)C(=O)N[C@@H](CC(N)=O)C(=O)N[C@@H]([C@@H](C)O)C(=O)N[C@@H](C)C(=O)N[C@@H]([C@@H](C)O)C(=O)N1)[C@@H](C)O)C(=O)N1CCC[C@H]1C(=O)N[C@@H](CO)C(=O)N[C@@H](CO)C(=O)N[C@H](C(=O)N[C@@H](CC(N)=O)C(=O)N[C@H](C(=O)NCC(=O)N[C@@H](Cc1c[nH]cn1)C(=O)N[C@@H](CC(N)=O)C(=O)N[C@H](C(=O)N[C@@H](Cc1ccc(O)cc1)C(N)=O)[C@@H](C)O)C(C)C)[C@@H](C)O [Example 101] ({C20 diacid-γGlu}-GRCNTATCATQRLAAFLRHSSPNFGAIPSSTNVGHNTY-NH2; disulfide 3-8)	≥ 200 µM	69 µM (≈ 309 µg/mL)	≥ 200 µM	182 µM (≈ 814 µg/mL)	83 µM (≈ 371 µg/mL)	≥ 200 µM	≥ 200 µM	≥ 200 µM	6.31	–	–	–	–	–	–	–	–
